# Laboratory results: patent publication US20200188361A1, “USE OF MITOCHONDRIAL ACTIVITY INHIBITORS FOR THE TREATMENT OF POOR PROGNOSIS ACUTE MYELOID LEUKEMIA” (UNIVERSITE DE MONTREAL, priority 2016, published 2020)
# Assays:
# OCI-AML3 cells [1] = assay: Dose-response curves in AML cell line (6-day culture assay in 384-well plates); format: cell-based; settings: FIG. 4E
# Protocol: (§1) FIGS. 5A-5J show the results on experiments assessing the mode of action of Mubritinib for mediating tumor cell death. FIG. 5A: OCI-AML3 leukemic cells were either pre-incubated for 4 hours with 6 mM N-acetyl-cysteine (NAC), a reactive oxygen species (ROS) scavenger, or with vehicle (water) before being treated with 100 nM Mubritinib for 24 h or vehicle (DMSO). […] FIGS. 5C and 5D show the levels of reduced and oxidized levels of glutathione, respectively, in OCI-AML3 treated or not with Mubritinib, as detected by liquid chromatography-mass spectrometry (LC/MS). […] FIG. 5G is a graph depicting dose-response curves upon Mubritinib treatment (6-day culture assay in 384-well plates) of OCI-AML3 and OCI-AML5 cell lines. FIGS. 5H-J are graphs depicting dose-response curves following treatment of OCI-AML3 and OCI-AML5 cell lines with other ETC inhibitors, namely Oligomycin (inhibitor of complex V, FIG. 5H), Rotenone (inhibitor of complex I, FIG. 5I) and Deguelin (inhibitor of complex I, FIG. 5J).
# OCI-AML3 cells were maintained in alpha-MEM, 20% FBS whereas breat tumor BT474 cells were maintained in DMEM 10% FBS.
# (§2) Patient cells were seeded in 384-well plates at a density of 5,000 cells in 50 μL per well. In the initial screen, compounds were added to seeded cells in serial dilutions (10 dilutions, 1:3, starting from 10 μM or 20 μM), in duplicates. Cells treated with 0.1% DMSO without additional compound were used as negative controls. Viable cell counts per well were evaluated after 6 days of culture using the CellTiterGlo® assay (Promega®) according to the manufacturer's instruction. The percent of inhibition was calculated as follows: 100−(100×(mean luminescence(compound)/mean luminescence(DMSO)); where mean-luminescence(compound) corresponds to the average of luminescent signals obtained for the compound-treated cells, and mean-luminescence(DMSO) corresponds to the average of luminescent signals obtained for the control DMSO-treated cells.
# [2] = tested on: Complex I enzyme activity in OCI-AML3 cells; settings: FIG. 8
# Protocol: Complex I activity is determined by following the oxidation of NADH to NAD+ and the simultaneous reduction of a dye which leads to increased absorbance at OD=450 nm.
# AML patient specimens = assay: Cell dose-response viability assay on AML patient specimens (primary and validation screen); format: cell-based, human; settings: Homo sapiens; poor prognostic triple-mutated specimens (FIG. 3G); read-out: median EC50 in AML specimens with simultaneous mutations in NPM1, DNMT3A and FLT3-ITD
# Protocol: frozen AML mono-nucleated cells were thawed at 37° C. in Iscove's modified Dulbecco's medium (IMDM) containing 20% FBS and DNase I (100 μg/mL).
# as §2
# OCI-AML5 cells = settings: FIG. 5G, 6-day culture
# Protocol: as §1, with “FIGS. 5H-J are graphs depicting dose-response curves following treatment of OCI-AML3 and OCI-AML5 cell lines with other ETC inhibitors, namely Oligomycin (inhibitor of complex V, FIG. 5H), Rotenone (inhibitor of complex I, FIG. 5I) and Deguelin (inhibitor of complex I, FIG. 5J).” left out
# as §2, with “In the initial screen, compounds were added to seeded cells in serial dilutions (10 dilutions, 1:3, starting from 10 μM or 20 μM), in duplicates. Cells treated with 0.1% DMSO without additional compound were used as negative controls.” left out
# [3] = tested on: mitochondrial electron transfer chain (ETC) complex I; settings: cell free assay (FIG. 5F)
# Protocol: as §1
# OCI-AML3 leukemic cells [4] = settings: acute injection, 1 μM (FIG. 5E)
# Protocol: Oxygen consumption rates and extracellular acidification rates were measured using a 96-well Seahorse Bioanalyzer XFe96® or XFe24® according to the manufacturer's instructions (Agilent Technologies). Seahorse XF Base medium was supplemented with 1 mM pyruvate, 2 mM glutamine and 10 mM glucose in the case of Mitochondrial Stress Test and with 1 mM pyruvate, 2 mM glutamine and no glucose in the case of Glycolytic Stress Test. The pH of the Seahorse media was then adjusted at 7.4 prior to assay. In brief, leukemic cells were seeded into Seahorse 96-well (or 24-well) plates pre-coated for 3 h with poly-lysine (Sigma-Aldrich, P4707) at a density of 75,000 cells/well in 100 μL (or 150,000 cells/well, in 150 μL) of temperature/CO2 pre-adjusted Seahorse media per well. The Seahorse plates were then centrifuged at 1400 rpm for 5 min. An additional 75 μL (or 375 μL) of Seahorse media was then added and cells were eventually analyzed following the manufacturer's instructions by adding compounds in a constant volume of 25 μL (or 75 μL). Compounds were acutely injected in cells at a final concentration of 1 μM for Mubritinib, 1 μM for Oligomycin, 0.5 μM for FCCP, 0.5 μM for Rotenone/Antimycin A, Glucose 10 mM and 2-Deoxy-Glucose 50 mM.
# OCI-AML3 cells [5] = tested on: OCI-AML3 cells
# Protocol: LC/MS Metabolite Measurements (Citric Acid Cycle Intermediates and Glutathione) LC/MS metabolite measurements were carried out at the McGill Metabolomics platform. Authentic metabolite standards were purchased from Sigma-Aldrich Co., while the following LC/MS grade solvents and additives were purchased from Fisher: ammonium acetate, formic acid, water, methanol, and acetonitrile. OCI-AML3 cells (5 million cells, quadruplicates, treated with either DMSO or Mubritinib 500 nM for 20 h) were washed twice with ice-cold 150 mM ammonium formate pH 7.2. Metabolites were then extracted using 380 μl of LC/MS grade 50% methanol/50% water mixture and 220 μl of cold acetonitrile. Samples were then homogenized by 1.4 mm ceramic bead beating 2 min at 30 Hz (TissueLyser, Qiagen). A volume of 300 μl of ice-cold water and 600 μl of ice-cold methylene chloride were added to the lysates. Samples were vortexed and allowed to rest on ice for 10 min for phase separation followed by centrifugation at 4,000 rpm for 5 min. The upper aqueous layer was transferred to a fresh pre-chilled tube. Samples were eventually dried by vacuum centrifugation operating at −4° C. (Labconco) and stored at −80° C. until ready for LC-MS/MS data collection. For LC-MS/MS analysis, specimens were first re-suspended in 50 μl of water and clarified by centrifugation for 15 min at 15,000 rpm at 1° C. Samples were maintained at 4° C. for the duration of the LC-MS/MS analysis in the autosampler.
# OCI-AML3 leukemic cells [6] = settings: 500 nM, 24 h (FIG. 5B)
# Protocol: as §1
# (§3) Dead cells were stained using Propidium iodide at a final concentration of 1 μg/mL.
# OCI-AML3 cells [7] = tested on: OCI-AML3 cells; remark: listed apart in the source
# Protocol: as §1, §3
# [8] = molecular target: human epidermal growth factor receptor 2 (ERBB2/HER2) (Homo sapiens, UniProt P04626); settings: described in Nagasawa et al.; cited from earlier work
# [9] = 500 nM, 24 h, relative to DMSO control
# Sequence of human epidermal growth factor receptor 2 (ERBB2/HER2) (P04626 23-1255): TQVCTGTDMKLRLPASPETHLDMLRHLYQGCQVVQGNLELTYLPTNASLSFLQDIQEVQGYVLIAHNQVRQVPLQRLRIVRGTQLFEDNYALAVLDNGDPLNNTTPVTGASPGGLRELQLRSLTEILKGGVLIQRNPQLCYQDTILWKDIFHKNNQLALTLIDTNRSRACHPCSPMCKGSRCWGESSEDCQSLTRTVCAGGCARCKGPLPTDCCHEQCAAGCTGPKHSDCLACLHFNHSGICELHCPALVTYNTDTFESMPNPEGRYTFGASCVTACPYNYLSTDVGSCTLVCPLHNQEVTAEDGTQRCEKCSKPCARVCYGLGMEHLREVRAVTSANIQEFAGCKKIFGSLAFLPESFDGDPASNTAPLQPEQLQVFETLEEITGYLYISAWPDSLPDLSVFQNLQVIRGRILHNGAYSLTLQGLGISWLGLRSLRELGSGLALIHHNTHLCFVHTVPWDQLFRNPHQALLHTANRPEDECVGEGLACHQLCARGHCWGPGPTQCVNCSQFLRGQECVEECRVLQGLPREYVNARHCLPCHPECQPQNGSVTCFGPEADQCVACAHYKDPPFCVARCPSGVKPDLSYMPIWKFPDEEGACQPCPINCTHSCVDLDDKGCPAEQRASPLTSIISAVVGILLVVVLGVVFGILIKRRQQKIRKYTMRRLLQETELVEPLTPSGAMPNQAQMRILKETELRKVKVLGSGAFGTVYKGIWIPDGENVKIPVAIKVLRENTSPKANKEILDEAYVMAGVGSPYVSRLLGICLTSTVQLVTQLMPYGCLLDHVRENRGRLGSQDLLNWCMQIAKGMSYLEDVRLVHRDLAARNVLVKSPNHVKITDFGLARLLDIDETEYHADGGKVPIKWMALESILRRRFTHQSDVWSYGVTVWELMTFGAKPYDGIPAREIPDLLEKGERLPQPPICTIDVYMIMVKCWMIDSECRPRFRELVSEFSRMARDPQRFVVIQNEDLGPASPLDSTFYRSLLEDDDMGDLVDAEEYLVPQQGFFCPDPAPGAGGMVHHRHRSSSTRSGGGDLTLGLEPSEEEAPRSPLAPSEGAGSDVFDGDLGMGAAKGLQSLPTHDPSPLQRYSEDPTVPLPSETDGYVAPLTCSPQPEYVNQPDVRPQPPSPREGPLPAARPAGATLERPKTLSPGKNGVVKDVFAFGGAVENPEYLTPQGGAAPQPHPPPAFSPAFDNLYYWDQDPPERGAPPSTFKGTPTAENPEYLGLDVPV
smiles,measurement,setting,value
"FC(F)(F)c1ccc(/C=C/c2nc(COc3ccc(CCCCn4ccnn4)cc3)co2)cc1 [Mubritinib, 1-(4-{4-[(2-{(E)-2-[4-(trifluoromethyl)phenyl]ethenyl}-1,3-oxazol-4-yl)methoxy]phenyl}butyl)-1H-1,2,3-triazole]",sensitivity of OCI-AML3 cells (dose response curves),OCI-AML3 cells [1],sensitive
same,inhibitory effect on complex I in diaphorase-type (NADH oxidation) assay,[2],NADH-independent
same,EC50,AML patient specimens,96 nM
same,sensitivity of OCI-AML5 cells to compound-induced cell death,OCI-AML5 cells,resistant
same,ETC Complex I activity,[3],inhibitory effect on ETC Complex I activity
same,oxygen consumption rate,OCI-AML3 leukemic cells [4],impaired oxygen consumption rate
same,levels of oxidized glutathione,OCI-AML3 cells [5]; [9],increased
same,levels of reduced glutathione,OCI-AML3 cells [5]; [9],decreased
same,level of citrate,"OCI-AML3 cells [5]; OCI-AML3, Mubritinib 500 nM for 20 h vs DMSO (FIG. 6A)",reduces the levels
same,level of alpha-ketoglutarate,"OCI-AML3 cells [5]; OCI-AML3, Mubritinib 500 nM for 20 h vs DMSO (FIG. 6B)",reduces the levels
same,level of succinate,"OCI-AML3 cells [5]; OCI-AML3, Mubritinib 500 nM for 20 h vs DMSO (FIG. 6C)",reduces the levels
same,level of fumarate,"OCI-AML3 cells [5]; OCI-AML3, Mubritinib 500 nM for 20 h vs DMSO (FIG. 6D)",reduces the levels
same,level of malate,"OCI-AML3 cells [5]; OCI-AML3, Mubritinib 500 nM for 20 h vs DMSO (FIG. 6E)",reduces the levels
same,"level of ROS activity (hydroxyl, peroxyl) by DCFDA",OCI-AML3 leukemic cells [6],increased
same,Mubritinib-induced apoptosis in the presence of the ROS scavenger N-acetyl-cysteine (NAC),"OCI-AML3 cells [7]; 4 hours pre-incubation with 6 mM NAC, then 100 nM Mubritinib for 24 h (FIG. 5A)",significantly decreased
same,Annexin V staining (marker of apoptosis),"OCI-AML3 cells [7]; 24 hours, 100 nM or 10 μM (FIG. 4C)",increase in Annexin V staining
same,number of dead (PI-positive) cells,"OCI-AML3 cells [7]; 27 hours of treatment, compared to DMSO (FIG. 4B)",increase in the number of dead (PI-positive) cells
same,live cell counts (Propidium Iodide-negative cells),"OCI-AML3 cells [7]; four days of treatment, different concentrations, dose-dependent (FIG. 4A)",reduction of live cell counts
same,inhibition of ERBB2/HER2,[8],potent inhibitor
